Assays:
[1] = MR angiography after intravenous injection in a rabbit; type: in vivo; details: i.v. 0.1 mmole per kg
Excerpt: For the purpose of a comparison with a known contrast agent, MR angiographic images of a rabbit were taken (shown in FIG. 5) after intravenous injection of: • a commercial MRI contrast agent (Gd-DTPA commercially available under the tradename Magnevisto® from Schering A G, Berlin, Germany) at a concentration of 0.1 mmole per kg bodyweight (A-C), and • the complex of example 8 at a concentration of 0.05 mmole per kg bodyweight (A′-C′).

[2] = 0.25 mmolar solution, yellow-orange color; cited from earlier work
[3] = animals, 1 mmole of the gadolinium complex per kg body weight; cited from earlier work

## O=C([O-])CN(CCN(CC(=O)[O-])CC(=O)O)CCN(CC(=O)[O-])CC(=O)O.[Gd+3] [Gd-DTPA]
[1]; immediately after injection
  contrast enhancement of abdominal aorta, first pass: moderately enhanced
[1]; one minute after contrast
  contrast enhancement of abdominal aorta: faintly enhanced

## gadolinium complex of the bis-diethylenetriaminepentaacetic acid pamoic acid derivative obtained from 3-hydroxy-2-naphtalene methyl carboxylate
[2]
  absorbance at 400 nm: 0.75
[3]
  side effects after intravenous bolus injection: significant side effects (e.g. myocarditis)

Reference: US7081472B2, “Substituted bis-indole derivatives useful as contrast agents, pharmaceutical compositions containing them and intermediates for producing them” (K. U. Leuven Research & Development, priority 2000, dated 2006)
